Source: ChEMBL document CHEMBL3045322, “Synthesis and herbicidal activity of 2-acylimino-3-phenyl-1,3-thiazolines—A new family of bleaching herbicides—” (J Pestic Sci, 2006)

Key:
Abutilon theophrasti [1] = test: Herbicidal activity against Abutilon theophrasti (velvetleaf) in plastic pot assessed as killing at 500 g/ha under greenhouse for 20 days by preemergence herbicidal activity tests; assay type: functional
Echinochloa frumentacea = test: Herbicidal activity against Echinochloa frumentacea (Japanese millet) in plastic pot assessed as killing at 500 g/ha under greenhouse for 20 days by preemergence herbicidal activity tests; assay type: functional
Ipomoea nil [2] = test: Herbicidal activity against Ipomoea nil (Japanese morning glory) in plastic pot assessed as killing at 500 g/ha under greenhouse for 20 days by pre-emergence herbicidal activity tests; assay type: functional
Abutilon theophrasti [3] = test: Herbicidal activity against Abutilon theophrasti (velvetleaf) in field soil at 62.5 g/ha measured after 3 days by preemergence herbicidal activity tests; assay type: functional
Gossypium hirsutum [4] = test: Phytotoxicity against Gossypium hirsutum (cotton) at 62.5 g/ha by selectivity assay; assay type: organism-based; details: in vivo
Ipomoea nil [5] = test: Herbicidal activity against Ipomoea nil (Japanese morning glory) in field soil at 125 g/ha measured after 3 days by pre-emergence herbicidal activity tests; assay type: functional
Echinochloa crus-galli [6] = test: Herbicidal activity against Echinochloa crus-galli (barnyard grass) in field soil at 62.5 g/ha measured after 3 days by preemergence herbicidal activity tests; assay type: functional
Portulaca oleracea [7] = test: Herbicidal activity against Portulaca oleracea in field soil at 125 g/ha measured after 3 days by preemergence herbicidal activity tests; assay type: functional
Portulaca oleracea [8] = test: Herbicidal activity against Portulaca oleracea in field soil at 62.5 g/ha measured after 3 days by preemergence herbicidal activity tests; assay type: functional
Gossypium hirsutum [9] = test: Phytotoxicity against Gossypium hirsutum (cotton) at 125 g/ha by selectivity assay; assay type: organism-based; details: in vivo
Echinochloa crus-galli [10] = test: Herbicidal activity against Echinochloa crus-galli (barnyard grass) in field soil at 125 g/ha measured after 3 days by preemergence herbicidal activity tests; assay type: functional
Ipomoea nil [11] = test: Herbicidal activity against Ipomoea nil (Japanese morning glory) in field soil at 62.5 g/ha measured after 3 days by pre-emergence herbicidal activity tests; assay type: functional
Sida spinosa [12] = test: Herbicidal activity against Sida spinosa in field soil at 62.5 g/ha measured after 3 days by preemergence herbicidal activity tests; assay type: functional
Sorghum halepense [13] = test: Herbicidal activity against Sorghum halepense (Johnson grass) in field soil at 62.5 g/ha measured after 3 days by preemergence herbicidal activity tests; assay type: functional
Sorghum halepense [14] = test: Herbicidal activity against Sorghum halepense (Johnson grass) in field soil at 125 g/ha measured after 3 days by preemergence herbicidal activity tests; assay type: functional
Amaranthus viridis [15] = test: Herbicidal activity against Amaranthus viridis in field soil at 125 g/ha measured after 3 days by pre-emergence herbicidal activity tests; assay type: functional
Eleusine indica [16] = test: Herbicidal activity against Eleusine indica in field soil at 62.5 g/ha measured after 3 days by preemergence herbicidal activity tests; assay type: functional
Abutilon theophrasti [17] = test: Herbicidal activity against Abutilon theophrasti (velvetleaf) in field soil at 125 g/ha measured after 3 days by preemergence herbicidal activity tests; assay type: functional
Eleusine indica [18] = test: Herbicidal activity against Eleusine indica in field soil at 125 g/ha measured after 3 days by preemergence herbicidal activity tests; assay type: functional
Sida spinosa [19] = test: Herbicidal activity against Sida spinosa in field soil at 125 g/ha measured after 3 days by preemergence herbicidal activity tests; assay type: functional
Amaranthus viridis [20] = test: Herbicidal activity against Amaranthus viridis in field soil at 62.5 g/ha measured after 3 days by pre-emergence herbicidal activity tests; assay type: functional

SMILES | Activity (Abutilon theophrasti [1]) [%] | Activity (Echinochloa frumentacea) [%] | Activity (Ipomoea nil [2]) [%] | other results
Cc1cn(-c2cccc(C(F)(F)F)c2)/c(=N/c2ccc(Cl)cc2)s1 | 0 | 0 | 0 | 
Cc1cn(-c2cccc(C(F)(F)F)c2)/c(=N/C(=O)C(F)(F)F)s1 | 100 | 100 | 100 | Activity (Abutilon theophrasti [3]): 90%; Activity (Gossypium hirsutum [4]): 10%; Activity (Ipomoea nil [5]): 100%; Activity (Echinochloa crus-galli [6]): 80%; Activity (Portulaca oleracea [7]): 90%; Activity (Portulaca oleracea [8]): 90%; Activity (Gossypium hirsutum [9]): 30%; Activity (Echinochloa crus-galli [10]): 100%; Activity (Ipomoea nil [11]): 80%; Activity (Sida spinosa [12]): 90%; Activity (Sorghum halepense [13]): 70%; Activity (Sorghum halepense [14]): 90%; Activity (Amaranthus viridis [15]): 100%; Activity (Eleusine indica [16]): 80%; Activity (Abutilon theophrasti [17]): 100%; Activity (Eleusine indica [18]): 90%; Activity (Sida spinosa [19]): 100%; Activity (Amaranthus viridis [20]): 90%
CCOC(=O)/N=c1/scc(N)n1-c1cccc(C(F)(F)F)c1 | 0 | 30 | 10 | 
Cc1cn(-c2cccc(C(F)(F)F)c2)/c(=N\C(=O)Nc2ccccc2)s1 | 60 | 60 | 40 | 
CCOC(=O)/N=c1/sc(Cl)cn1-c1cccc(C(F)(F)F)c1 | 70 | 90 | 60 | 
Cc1cn(-c2cccc(C(F)(F)F)c2)/c(=N/C(=O)C(F)F)s1 | 100 | 100 | 100 | Activity (Abutilon theophrasti [3]): 100%; Activity (Gossypium hirsutum [4]): 0%; Activity (Ipomoea nil [5]): 100%; Activity (Echinochloa crus-galli [6]): 90%; Activity (Portulaca oleracea [7]): 100%; Activity (Portulaca oleracea [8]): 100%; Activity (Gossypium hirsutum [9]): 0%; Activity (Echinochloa crus-galli [10]): 100%; Activity (Ipomoea nil [11]): 100%; Activity (Sida spinosa [12]): 100%; Activity (Sorghum halepense [13]): 90%; Activity (Sorghum halepense [14]): 90%; Activity (Amaranthus viridis [15]): 100%; Activity (Eleusine indica [16]): 90%; Activity (Abutilon theophrasti [17]): 100%; Activity (Eleusine indica [18]): 90%; Activity (Sida spinosa [19]): 100%; Activity (Amaranthus viridis [20]): 100%
Cc1cn(-c2cccc(C(F)(F)F)c2)/c(=N\C(=O)N(C)C)s1 | 30 | 70 | 20 | 
CSC(=S)/N=c1/sc(C)cn1-c1cccc(C(F)(F)F)c1 | 30 | 50 | 40 | 
CCOC(=O)/N=c1/sc(C(C)C)cn1-c1cccc(C(F)(F)F)c1 | 0 | 0 | 10 | 
Cc1cn(-c2cccc(C(F)(F)F)c2)/c(=N/C#N)s1 | 60 | 90 | 50 | 
CCOC(=O)/N=c1/scc(Cl)n1-c1cccc(C(F)(F)F)c1 | 0 | 0 | 0 | 
Cc1cn(-c2cccc(C(F)(F)F)c2)/c(=N/C(=O)CF)s1 | 70 | 90 | 90 | 
CCNC(=S)/N=c1/sc(C)cn1-c1cccc(C(F)(F)F)c1 | 0 | 20 | 0 | 
Cc1cn(-c2cccc(C(F)(F)F)c2)/c(=N/C(=O)C(C)(C)C)s1 | 40 | 50 | 60 | 
CCOC(=O)/N=c1/sc(Br)c(Br)n1-c1cccc(C(F)(F)F)c1 | 0 | 20 | 40 | 
CCOC(=O)/N=c1/sc(C)c(Br)n1-c1cccc(C(F)(F)F)c1 | 0 | 20 | 40 | 
CCOC(=O)/N=c1/sc(SC)cn1-c1cccc(C(F)(F)F)c1 | 40 | 70 | 50 | 
CCOC(=O)/N=c1/scc(C)n1-c1cccc(C(F)(F)F)c1 | 0 | 0 | 0 | 
Cc1cn(-c2cccc(C(F)(F)F)c2)/c(=N\S(C)(=O)=O)s1 | 80 | 90 | 80 | 
Cc1cn(-c2cccc(C(F)(F)F)c2)/c(=N/C(=O)C(C)C)s1 | 60 | 70 | 40 | 

SMILES | Activity (Abutilon theophrasti [1]) [%] | Activity (Echinochloa frumentacea) [%] | Activity (Ipomoea nil [2]) [%] | other results
Cc1cn(-c2cccc(C(F)(F)F)c2)/c(=N/C(=O)CCl)s1 | 0 | 20 | 0 | 
Cc1cn(-c2cccc(C(F)(F)F)c2)c(=N)s1 | 0 | 40 | 0 | 
CC(=O)/N=c1/sc(C)cn1-c1cccc(C(F)(F)F)c1 | 90 | 100 | 100 | 
CC(=S)/N=c1/sc(C)cn1-c1cccc(C(F)(F)F)c1 | 0 | 10 | 0 | 
CCOC(=O)/N=c1/sc(Br)cn1-c1cccc(C(F)(F)F)c1 | 100 | 90 | 60 | 
CCOC(=O)/N=c1/sc(I)cn1-c1cccc(C(F)(F)F)c1 | 60 | 80 | 90 | 
CCOC(=O)/N=c1/sc(C)cn1-c1cccc(C(F)(F)F)c1 | 90 | 90 | 90 | 
CCOC(=O)/N=c1/sc2c(n1-c1cccc(C(F)(F)F)c1)CCC2 | 0 | 0 | 0 | 
Cc1cn(-c2cccc(C(F)(F)F)c2)/c(=N/C(=O)C2CC2)s1 | 40 | 90 | 60 | 
Cc1cn(-c2cccc(C(F)(F)F)c2)/c(=N/C(=O)C(Cl)Cl)s1 | 0 | 30 | 0 | 
CCC(=O)/N=c1\sc(C)cn1-c1cccc(C(F)(F)F)c1 | 50 | 70 | 60 | 
CCCC(=O)/N=c1\sc(C)cn1-c1cccc(C(F)(F)F)c1 | 20 | 40 | 40 | 
CCOC(=O)/N=c1/sc(C#N)cn1-c1cccc(C(F)(F)F)c1 | 0 | 20 | 0 | 
CCOC(=O)/N=c1/sccn1-c1cccc(C(F)(F)F)c1 | 20 | 50 | 20 | 
C/N=c1/sc(C)cn1-c1cccc(C(F)(F)F)c1 | 0 | 0 | 0 | 
CCOC(=O)/N=c1/sc(CC)cn1-c1cccc(C(F)(F)F)c1 | 70 | 70 | 70 | 
CCCc1cn(-c2cccc(C(F)(F)F)c2)/c(=N\C(=O)OCC)s1 | 0 | 60 | 40 | 
CCOC(=O)/N=c1/sc2c(n1-c1cccc(C(F)(F)F)c1)CCCC2 | 0 | 0 | 0 | 
CCNC(=O)/N=c1/sc(C)cn1-c1cccc(C(F)(F)F)c1 | 40 | 80 | 40 | 
Cc1cn(-c2cccc(C(F)(F)F)c2)/c(=N/C(=O)C(F)(F)C(F)(F)F)s1 | 80 | 80 | 70 | 
